The values below come from US9162979B2, “1,5-Diary1-2-alkylpyrrole-3-substituted nitro esters, selective COX-2 inhibitors and nitric oxide donors” (ROTTAPHARM BIOTECH S.R.L., priority 2010, dated 2015).

Series [1] has as its system isolated rings of thoracic aorta. In words: Evaluation of release of NO: vasorelaxing activity on endothelium-denuded aortic rings contracted with KCl. Also on record: species or system rat. The settings on record: for IC50 / Emax: Rattus norvegicus; for IC50: read-out: NO release properties pIC50 (vasorelaxing potency) (converted); for Emax: relative to contractile tone induced by 20 mM KCl, 1 nM-10 μM, read-out: NO release properties Emax (maximum vasorelaxing effect); for vasorelaxing effect in the presence of ODQ: ODQ 1 μM, guanylate cyclase inhibitor. Here is the method:
The activity of the compounds was evaluated on isolated rings of thoracic aorta of normotensive male Wistar rats (250-350 g). After light anaesthesia with ether, the rats were sacrificed by cervical dislocation and exsanguination. The aortas were immediately excised, extraneous tissues were removed and the endothelial layer was removed by gently rubbing the surface with a hypodermic needle. Rings of aorta with a width of 5 mm were suspended, with a preload of 2 g, in 20-ml organ baths, containing a solution of “Tyrode” (composition of the saline solution in mM: NaCl 136.8; KCl 2.95; CaCl2 1.80; MgSO4 1.05; NaH2PO4 0.41; NaHCO3 11.9; glucose 5.5), thermostatically controlled at 37° C. and kept in an atmosphere of O2 (95%) and CO2 (5%). […] were recorded by means of an isometric transducer (FTO3 Erba), connected to a microdynamometer (Buxco Electronics).
60 minutes after preparation, removal of the endothelium was confirmed by acetylcholine (ACH) (10 μM) treatment of the vascular rings pre-contracted with KCl (20 mM). Relaxation of less than 10% of the contraction induced by KCl was considered as representative of acceptable removal of the endothelial layer, whereas organs displaying relaxation ≧10% were discarded. 40 minutes after confirmation of complete removal of the endothelium, the aortas were contracted by treatment with a single dose of KCl (20 mM) and after the contraction reached a stable plateau, increasing cumulative concentrations (with progressive increments of 3 times) of the test compounds (1 nM-10 μM) were added. It was found from preliminary experiments that the contraction induced by KCl (20 mM) remained stable in a tonic state for at least 40 minutes. The same experiments were performed in the presence of a well-known inhibitor of guanylate cyclase: ODQ 1 μM, which was incubated in aorta preparations after confirmation of removal of the endothelium.
Analysis of the results. The vasorelaxing activity was evaluated as a percentage (%) relative to the contractile tone induced by 20 mM KCl. The pharmacodynamic efficacy parameter (Emax) corresponds to the maximum vasorelaxing effect induced by the molecule tested, expressed as percentage relative to the contractile tone induced by 20 mM KCl. When the limit concentration of 10 μM (the highest concentration administered) of the test compounds has not reached the maximum effect, the efficacy parameter (Emax) corresponds to the vasorelaxing effect induced by the limit concentration (expressed as percentage relative to the contractile tone induced by 20 mM KCl). The pharmacodynamic parameter of potency of the compounds was expressed as pIC50 calculated as the negative logarithm of the molar concentration of test compound that reduces the contractile tone induced by 20 mM KCl by half. […] The parameters of efficacy and potency were expressed as mean±standard error, for 5-10 experiments. The experimental data were analysed by the program GraphPad Prism 3.0.

The next series has as its target COX-2 (Mus musculus (Mouse), UniProt Q05769). Briefly: Evaluation of COX-2 activity: PGE2 production in LPS-stimulated J774 cells. Conditions: J774 cells stimulated 24 hours with LPS 10 μg/mL; PGE2 by radio-immunological assay; read-out: Cyclooxygenase inhibition COX-2 IC50. Type of series: cell-based, murine. The procedure: The murine monocyte/macrophage cell line J774 is grown in Dulbecco's modified Eagle's medium (DMEM), enriched with glutamine (2 mM), HEPES (25 mM), penicillin (100 u/mL), streptomycin (100 μg/mL), 10% of fetal bovine serum (FBS) and 1.2% of sodium pyruvate. […] Just before the experiments, the culture medium is replaced with fresh medium without FBS to avoid interference during the radio-immunological phase and the cells are stimulated as described below.
The supernatants are collected for evaluating, by means of radio-immunological assays, the amount of PGE2 produced.
In each group of experiments, wells were used in triplicate for the different treatment conditions. […] The data were evaluated using the sigmoidal dose-response equation (variable slope) (GraphPad software). IC50 and the 95% precision intervals were calculated with the program GraphPad Instat (GraphPad software).

Series [2] has as its system mouse abdominal contraction (writhing) induced by acetic acid. Briefly: Abdominal constriction test induced by acetic acid. Type of series: in vivo. Here is the method: Male Swiss albino mice (23-25 g) and Wistar rats (150-200 g) were used.
The antinociceptive activity was determined by the mouse abdominal contraction test using acetic acid (0.6%), which induces writhing, according to Koster's method (Fed. Proc., 1959, 18, 412-418). The number of stretching movements was counted for 10 minutes, starting 5 minutes after injection of acetic acid. The results relating to analgesic activity in the abdominal constriction test with representative compounds of the invention are shown in Table 10.
The test was carried out using 10 animals in the treated group and 20 in the control group (CMC); all the compounds were administered per os with the exception of the compound of Example 8, which was administered i.p.

In the next series the test system is rat liver homogenate. In words: Evaluation of release of nitrites in hepatic homogenate. Conditions: nitrite after 4 hours, 1 mM, 37° C., as percentage of SNP.
[3] abbreviates: concentration reducing contractile tone induced by 20 mM KCl by half.

Chain of COX-2 (Q05769 18-604): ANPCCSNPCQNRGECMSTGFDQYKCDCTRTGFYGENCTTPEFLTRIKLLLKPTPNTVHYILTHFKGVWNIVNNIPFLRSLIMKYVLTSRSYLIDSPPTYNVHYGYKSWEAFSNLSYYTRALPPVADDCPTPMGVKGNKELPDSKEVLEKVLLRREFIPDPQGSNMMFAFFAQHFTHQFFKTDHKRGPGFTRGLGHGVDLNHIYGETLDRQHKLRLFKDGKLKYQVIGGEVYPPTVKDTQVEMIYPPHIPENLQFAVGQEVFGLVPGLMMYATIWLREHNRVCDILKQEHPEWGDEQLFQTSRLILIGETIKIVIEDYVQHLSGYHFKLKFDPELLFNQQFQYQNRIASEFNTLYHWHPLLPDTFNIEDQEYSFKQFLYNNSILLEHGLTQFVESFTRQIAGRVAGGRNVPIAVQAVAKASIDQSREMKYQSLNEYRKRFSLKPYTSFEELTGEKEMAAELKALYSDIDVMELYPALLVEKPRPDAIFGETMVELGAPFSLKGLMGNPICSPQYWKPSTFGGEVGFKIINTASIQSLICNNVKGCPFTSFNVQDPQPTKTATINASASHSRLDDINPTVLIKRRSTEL
Source text for rat liver homogenate: By evaluating the time-dependent increase in nitrite concentrations in the liver homogenate, it was possible to extrapolate two descriptive parameters:
Time (in minutes) required for an amount of nitrite to be released by the test compound equal to half its maximum release.

Take `Cc1c(C(N)C(=O)OCCO[N+](=O)[O-])cc(-c2ccc(S(C)(=O)=O)cc2)n1-c1ccc(F)cc1` (racemic) [Example 16, (R,S)-2-(Nitrooxy)ethyl-[2-amino-2-[1-(4-fluorophenyl)-2-methyl-5-(4-methylsulphonylphenyl)-1H-pyrrol-3-yl]]-acetate]: the values for the IC50 (in series [1] (setting [3]); at COX-2) were 1120 nM and 740 nM, respectively. Moreover, the Emax – broadly, the greatest response seen or fitted, relative to the assay's reference – in series [1] was 80 ± 7%. Besides, the N writhes in series [2] (40 mg/kg per os) amounted to 24.9 ± 3.0.

On to `Cc1c(C(N)C(=O)OCCCO[N+](=O)[O-])cc(-c2ccc(S(C)(=O)=O)cc2)n1-c1ccc(F)cc1` (racemic) [Example 18, (R,S)-3-(Nitrooxy)propyl-[2-amino-2-[1-(4-fluorophenyl)-2-methyl-5-(4-methylsulphonylphenyl)-1H-pyrrol-3-yl]]-acetate], for which, in series [1], the “vasorelaxing effect in the presence of ODQ” value is recorded as “not fully antagonized by ODQ”. Further, the IC50 in series [1] (setting [3]) is 2190 nM; at COX-2, 820 nM. In series [1], the Emax came to 84 ± 2%. Further, the N writhes worked out at 26.9 ± 2.6 in series [2] (3 mg/kg per os), 21.3 ± 2.5 in series [2] (10 mg/kg per os), 18.1 ± 3.0 in series [2] (20 mg/kg per os) and 13.5 ± 2.8 in series [2] (40 mg/kg per os).

For `Cc1c(C(N)C(=O)OCCCCO[N+](=O)[O-])cc(-c2ccc(S(C)(=O)=O)cc2)n1-c1ccc(F)cc1` (racemic) [Example 20, (R,S)-4-(Nitrooxy)butyl-[2-amino-2-[1-(4-fluorophenyl)-2-methyl-5-(4-methylsulphonylphenyl)-1H-pyrrol-3-yl]]-acetate], the melting point (usually the temperature, or range, at which the solid turns liquid) came out at 108 °C. Further, in series [1], the “vasorelaxing effect in the presence of ODQ” value is “not fully antagonized by ODQ” and the Emax was determined as 93 ± 1%. For the same compound, the IC50 in series [1] (setting [3]) was 1550 nM. On COX-2, the IC50 came out at 1000 nM. Moreover, in series [2] (40 mg/kg per os), the N writhes was 19.8 ± 2.4.

With `Cc1c(CC(=O)NC(CCO[N+](=O)[O-])C(=O)O)cc(-c2ccc(S(C)(=O)=O)cc2)n1-c1ccc(F)cc1` (racemic) [Example 32, (R,S)-4-(Nitroxy)-2-[[1-(4-fluorophenyl)-2-methyl-5-(4-methylsulphonylphenyl)-1H-pyrrol-3-yl]acetamido]butanoic Acid], in series [1], the maximum response (Emax) worked out at 42 ± 9%. Also, the IC50 on COX-2 is 1600 nM. The N writhes in series [2] (10 mg/kg per os) amounted to 22.8 ± 3.0; in series [2] (20 mg/kg per os), 14.6 ± 2.7.

As to `COc1ccc(-n2c(-c3ccc(S(C)(=O)=O)cc3)cc(CC(=O)OCCO[N+](=O)[O-])c2C)cc1` [Example 4, 2-(Nitrooxy)ethyl-[1-(4-methoxy-phenyl)-2-methyl-5-(4-methylsulphonylphenyl)-1H-pyrrol-3-yl]-acetate], the melting point came to 122 °C. Further, in series [1] (setting [3]), the IC50 was 178 nM. The Emax in series [1] came to 77 ± 2%. In addition, at COX-2, the IC50 amounted to 170 nM. The compound also came in with a N writhes in series [2] (40 mg/kg per os) of 17.7 ± 2.3.

Turning to `Cc1c(CC(=O)OCCCO[N+](=O)[O-])cc(-c2ccc(S(C)(=O)=O)cc2)n1-c1cccc(F)c1` [Example 8, 3-(Nitroxy)propyl-[1-(3-fluorophenyl)-2-methyl-5-(4-methylsulphonylphenyl)-1H-pyrrol-3-yl]-acetate], the figures for the IC50 (in series [1] (setting [3]); on COX-2) were 162 nM and 7 nM, respectively. Also, the Emax in series [1] came to 82 ± 1%. Besides, in series [2] (20 mg/kg i.p.), the N writhes stood at 16.9 ± 2.4.

Compound `COc1ccc(-n2c(-c3ccc(S(C)(=O)=O)cc3)cc(CC(=O)OCCCO[N+](=O)[O-])c2C)cc1` [Example 9, 3-(Nitroxy)propyl-[1-(4-methoxyphenyl)-2-methyl-5-(4-methylsulphonylphenyl)-1H-pyrrol-3-yl]-acetate] displayed a melting point of 115 °C. For the same compound, the Emax in series [1] is 41 ± 11%. The IC50 on COX-2 was 2 nM. Further, in series [2] (20 mg/kg per os), the N writhes came out at 18.4 ± 3.1.

For `Cc1c(CC(=O)OCCCCO[N+](=O)[O-])cc(-c2ccc(S(C)(=O)=O)cc2)n1-c1cccc(F)c1` [Example 12, 4-(Nitrooxy)butyl-2-[1-(3-fluorophenyl)-2-methyl-5-(4-methylsulphonylphenyl)-1H-pyrrol-3-yl]acetate], the melting point turned out to be 114 °C. The IC50 in series [1] (setting [3]) is 3980 nM. Moreover, the Emax in series [1] is 57 ± 14%. Moreover, the IC50 at COX-2 was found to be 69 nM. The compound also registered a N writhes in series [2] (40 mg/kg per os) of 25.1 ± 2.3.

`COc1ccc(-n2c(-c3ccc(S(C)(=O)=O)cc3)cc(CC(=O)OCCCCO)c2C)cc1` [Example 13-II, 4-(Hydroxy)butyl-2-[1-(4-methoxyphenyl)-2-methyl-5-(4-methylsulphonylphenyl)-1H-pyrrol-3-yl]acetate]: on COX-2, the IC50 stood at 1100 nM. In addition, in series [2] (40 mg/kg per os), the N writhes was 14.7 ± 2.5.

The compound `Cc1c(CC(=O)NCCO[N+](=O)[O-])cc(-c2ccc(S(C)(=O)=O)cc2)n1-c1ccc(F)cc1` [Example 23, N-[(2-Nitroxy)ethyl]-2-[1-(4-fluorophenyl)-2-methyl-5-(4-methylsulphonylphenyl)-1H-pyrrol-3-yl]acetamide] displayed a melting point of 135 °C. Besides, in series [1] (setting [3]), the IC50 was 4900 nM and the “NO release properties pIC50 (vasorelaxing potency)” value is 5.31 ± 0.05. Moreover, the Emax in series [1] was determined as 68 ± 6%. In addition, the IC50 on COX-2 stood at 240 nM.

Consider `Cc1c(CCOCCO)cc(-c2ccc(S(C)(=O)=O)cc2)n1-c1cccc(F)c1` [Example 38-II], for which the IC50 on COX-2 amounted to 46 nM. Besides, the N writhes in series [2] (20 mg/kg per os) is 26.8 ± 3.2; in series [2] (40 mg/kg per os) it was 17.3 ± 3.5.

With `Cc1c(CCOCCO)cc(-c2ccc(S(C)(=O)=O)cc2)n1-c1ccc(F)c(F)c1` [Example 39-II], the melting point is 138 to 140 °C. The IC50 at COX-2 was 420 nM. In addition, in series [2] (20 mg/kg per os), the N writhes is 24.8 ± 3.0.

In turn, `Cc1c(CCOCCCO)cc(-c2ccc(S(C)(=O)=O)cc2)n1-c1ccc(F)cc1` [Example 41-II, 3-[2-[2-(1-(4-Fluorophenyl)-2-methyl-5-(4-methylsulphonylphenyl)-1H-pyrrol-3-yl)]ethoxy]propanol] displayed a melting point of 100 to 102 °C. At COX-2, the IC50 turned out to be 940 nM.

On to `O=C(NCCO[N+](=O)[O-])c1cccnc1` [Nicorandil, reference compound], for which, in the series on rat liver homogenate, the “Maximum release (%)” value is reported as 18 ± 2%.
